For orientation: EC50 means the concentration at which the effect is half-maximal.

The first experiment concerns HT-1080 (ATCC, CCL-121) cells. The experiment is described as follows: HT-1080 cell viability assay with ferroptosis inducer RSL3 (Cell Titer-Glo). Format: cell-based. Conditions: Homo sapiens; HT-1080 cells treated with RSL3; 3-fold, 10-point dilution, 1.1 μM highest concentration; Table 2; read-out: EC50 (nM), ferroptosis inhibitory activity. The method in brief: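 EC50 was derived by sigmoidal dose-response regression of CellTiter-Glo luminescence viability, expressed relative to untreated wells. Compounds were tested in a ten-point, threefold dilution series (highest 1.1 μM) in the presence of the ferroptosis inducer RSL3. HT-1080 cells had been seeded at 6000 per well and grown overnight first.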
(In ATP-based viability assays light output follows the ATP content of the culture.)
With `FC(F)(F)C1CCN(c2ccc(Nc3ccc4nc[nH]c4c3)cc2)CC1` [Compound 357, N-(4-(4-(trifluoromethyl)piperidin-1-yl)phenyl)-1H-benzo[d]imidazol-6-amine], the EC50 was 0.1 to 100 nM.

Take `O=c1ccc2cc(Nc3ccc(N4CCC(C(F)(F)F)CC4)cc3)ccc2o1` [Compound 123, 6-((4-(4-(trifluoromethyl)piperidin-1-yl)phenyl)amino)-2H-chromen-2-one]: the EC50 lay within 0.1 to 100 nM.

As for `CCC(C)(C)c1ccc(Nc2ccc3c(c2)OCC(=O)N3C)cc1` [Compound 38, 4-methyl-7-((4-(tert-pentyl)phenyl)amino)-2H-benzo[b][1,4]oxazin-3(4H)-one], the EC50 was in the range of 0.1 to 100 nM.

Regarding `CN1C(=O)COc2cc(Nc3ccc(N4CCC(C(F)(F)F)CC4)cc3F)ccc21` [Compound 34, 7-((2-fluoro-4-(4-(trifluoromethyl)piperidin-1-yl)phenyl)amino)-4-methyl-2H-benzo[b][1,4]oxazin-3(4H)-one], the EC50 lay in the range of 100 to 1000 nM.

Turning to `Cn1c(=O)oc2cc(Nc3ccc(N4C[C@H]5CC[C@@H]4C5)cc3)ccc21` [Compound 315, 6-((4-((1R,4S)-2-azabicyclo[2.2.1]heptan-2-yl)phenyl)amino)-3-methylbenzo[d] oxazol-2(3H)-one], the EC50 fell in the range of 0.1 to 100 nM.

For the compound `CN1C(=O)CCOc2cc(Nc3ccc(N4CCC(C(F)(F)F)CC4)cc3)ccc21` [Compound 3, 5-methyl-8-((4-(4-(trifluoromethyl)piperidin-1-yl)phenyl)amino)-2,3-dihydrobenzo[b][1,4]oxazepin-4(5H)-one], the EC50 fell in the range of 0.1 to 100 nM.

Turning to `Cc1cc(N2CCC(C)CC2)cc(C)c1Nc1ccc2c(c1)n(C)c(=O)n2C` [Compound 278, 5-((2,6-dimethyl-4-(4-methylpiperidin-1-yl)phenyl)amino)-1,3-dimethyl-1,3-dihydro-2H-benzo[d]imidazol-2-one], the EC50 lay in the range of 0.1 to 100 nM.

As for `CC1CCN(c2ccc(Nc3ccc4c(c3)CN(C)C4=O)cc2)CC1` [Compound 174, 2-methyl-5-((4-(4-methylpiperidin-1-yl)phenyl)amino)isoindolin-1-one], the EC50 was 0.1 to 100 nM.

In the case of `CC1CN(c2ccc(Nc3ccc4c(cnn4C)c3)cc2)CC(C)O1` (stereo not shown) [Compound 422, N-(4-(2,6-dimethylmorpholino)phenyl)-1-methyl-1H-indazol-5-amine], the EC50 was 0.1 to 100 nM.

With `CC1CN(c2ccc(Nc3ccc4c(c3)c(C(N)=O)cn4C)cc2)CC(C)O1` (stereo not shown) [Compound 425, 5-((4-(2,6-dimethylmorpholino)phenyl)amino)-1-methyl-1H-indole-3-carboxamide], the EC50 lay in the range of 0.1 to 100 nM.

Take `Cn1c(=O)n(C)c2cc(Nc3ccc(N4CCC(F)CC4)cc3)ccc21` [Compound 299, 5-((4-(4-fluoropiperidin-1-yl)phenyl)amino)-1,3-dimethyl-1,3-dihydro-2H-benzo[d]imidazol-2-one]: the EC50 lay in the range of 0.1 to 100 nM.

Staying with this experiment, now noted: Homo sapiens; HT-1080 cells treated with RSL3; 3-fold, 10-point dilution, 1.1 μM highest concentration; Table 3; read-out: EC50 (nM), ferroptosis inhibitory activity.
In the case of `CCC1CN(c2ccc(Nc3ccc4c(c3)OCCC(=O)N4)c(C)n2)CCO1` (stereo not shown) [Compound 557, 8-((6-(2-ethylmorpholino)-2-methylpyridin-3-yl)amino)-2,3-dihydrobenzo[b][1,4]oxazepin-4(5H)-one], the EC50 fell in the range of 0.1 to 100 nM.

`Cc1nc(N2CC(C)OC(C)(C)C2)ccc1Nc1ccc2c(c1)OCC(=O)N2` (stereo not shown) [Compound 520, 7-((2-methyl-6-(2,2,6-trimethylmorpholino)pyridin-3-yl)amino)-2H-benzo[b][1,4]oxazin-3(4H)-one]: the EC50 is 0.1 to 100 nM.

For `Cc1cc(N2CCCCC2)ccc1Nc1ccc2c(c1)OCC(=O)N2C` [Compound 506], the concentration for a half-maximal effect (EC50) fell in the range of 0.1 to 100 nM.

As for `Cc1cc(N2C[C@@H](C)O[C@@H](C)C2)ccc1Nc1ccc2cn(C)nc2c1` [Compound 637, N-(4-((2S,6R)-2,6-dimethylmorpholino)-2-methylphenyl)-2-methyl-2H-indazol-6-amine], the EC50 was in the range of 0.1 to 100 nM.

As for `Cc1cc(N2CCC(C(F)(F)F)CC2)ccc1Nc1ccc2[nH]c(=O)[nH]c2c1` [Compound 513, 5-((2-methyl-4-(4-(trifluoromethyl)piperidin-1-yl)phenyl)amino)-1,3-dihydro-2H-benzo[d]imidazol-2-one], the EC50 was 0.1 to 100 nM.
